According to patent US20260275279A1, “THYROCYTES AND USES THEREOF” (LifeNet Health, priority 2023, published 2026):
Like-named read-outs stand apart in the source and are kept apart here.

Assays:
T4 synthesis = experiment: Reference chemical evaluation: inhibition of T4 synthesis in 3D microtissue cultures; format: cell-based, human; conditions: for effect on T4 levels: 0.0001 to 100 μM; for IC50: 120-h treatment days 9-14, 1 mIU/mL bovine TSH, 7,500 cells/well, read-out: Average half-maximal inhibitory concentrations (IC50), T4 synthesis
Method: 3D cultures with cell seeding density of 7,500 cells/well were treated with 1 mIU/mL bovine TSH on days 2, 5, 7, 9, and 12. For each studied compound, cells were dosed on days 9 and 12 with concentrations ranging from 0.0001 to 100 μM across a log-fold titration. T4 levels were measured as described. All measured data were normalized to DMSO vehicle control.
Images are shown from representative donor lots. Values were normalized to the number of cells seeded per well. Significance was calculated in MiniTab (State College, PA) using either Student's t-test between 2 groups or One-way ANOVA with Tukey post hoc testing when comparing 3 groups or more to determine statistical significance with 95% confidence and *p<0.05 for statistical significance. GraphPad Prism v.9 was used to determine EC50 and EC90. Four-parameter nonlinear regression fit was used to determine the half-maximal inhibition concentration IC50 using GraphPad Prism v.9.
Established antagonists of thyroid hormone production were selected to determine the concentration-response profiles in 3D cultures for TDC screening purposes (FIG. 21).

T3/T4 synthesis = experiment: Example 10 3D culture TDC screening, T3/T4 synthesis by ELISA and LC-MS/MS; format: cell-based, human
Method: For TDC Screening, these procedures were followed: • Prepare the Plate by adding 50 μL of 10 mg/ml of Matrigel, then polymerize the Matrigel at 37° C. for 1 hr. • Thaw the thyrocytes in 37° C. water bath. • Resuspend the cells in humanized medium (h7H). • Seed the cells at the optimal seeding density, 7,500 cells per 0.32 cm2. • Culture the cells in h7H medium. • Exchange the medium on Day 2, 5, 7, 9 and 12. • Start stimulating the cells with activators (e.g., bTSH, hTSH, M22, K!-18, ML-109) on Day 2 • Treatment with the activator is between Day 2-14 • Compound treatment starts on Day 9. • 8 doses: Concentrations (10^−10 to 10^−4M) • Serial dilutions were made in DMSO (Dilution factor 1:1000) • Compounds were added to the media • Day 12: Refresh media with the compound • Day 14: Collect the supernatant for the T4 analysis by ELISA and LC-MS/MS.

[1] = test system: 3D thyrocyte cell culture; conditions: 1.0×10^−10 to 1.0×10^−4 M
Method: After collecting media for T4 measurement, backing tape was put on the back of the 3D culture 96-well plate. 100 μL of a 1:1 mixture of CellTiter-Glo® Luminescent Cell Viability Assay (Promega, Madison, WI) and HTCM was added into each well of the 3D cell culture plate. The plate was covered and shaken for 2 minutes on an orbital plate shaker at 500 rpm followed by a 10 minute incubation in the dark without shaking. Luminescence reading was recorded using a CLARIOStar (BMG Labtech) microplate reader.

SMILES	effect on T4 levels (T4 synthesis)	IC50 (T4 synthesis) [nM]	IC50 (T4 synthesis; Homo sapiens, 120 h) [nM]	T3/T4 synthesis (T3/T4 synthesis)	toxicity of inhibitor concentrations to the cells [1]
CCCc1cc(=O)[nH]c(=S)[nH]1 [6-propyl-2-thiouracil]	consistent concentration-dependent decrease in T4 levels	767	659	inhibited	not toxic to the cells with the exception of 6-propyl-2-thiouracil for 2021159 at the highest dose
Cn1cc[nH]c1=S [methimazole, Methimazole]	consistent concentration-dependent decrease in T4 levels			inhibited	
